Laboratory results taken from ChEMBL document CHEMBL1201862, “PubChem BioAssay data set” (2004).
Active and inactive are the calls of the source.

How the values were obtained:
[1] = viability loss in HeLa cells – cytotoxicity control for MgcRacGAP inhibitor project, dose response (AID 624300); assay type: functional
[2] = target: T1, Rac GTPase-activating protein 1 (Homo sapiens, UniProt Q9H0H5); assay: blockers of MgcRacGAP-driven Rac1 GTP hydrolysis – biochemical, ADP Hunter fluorescence, primary and confirmatory, confirmation (AID 624330); assay type: functional
T1 sequence (Q9H0H5 whole entry): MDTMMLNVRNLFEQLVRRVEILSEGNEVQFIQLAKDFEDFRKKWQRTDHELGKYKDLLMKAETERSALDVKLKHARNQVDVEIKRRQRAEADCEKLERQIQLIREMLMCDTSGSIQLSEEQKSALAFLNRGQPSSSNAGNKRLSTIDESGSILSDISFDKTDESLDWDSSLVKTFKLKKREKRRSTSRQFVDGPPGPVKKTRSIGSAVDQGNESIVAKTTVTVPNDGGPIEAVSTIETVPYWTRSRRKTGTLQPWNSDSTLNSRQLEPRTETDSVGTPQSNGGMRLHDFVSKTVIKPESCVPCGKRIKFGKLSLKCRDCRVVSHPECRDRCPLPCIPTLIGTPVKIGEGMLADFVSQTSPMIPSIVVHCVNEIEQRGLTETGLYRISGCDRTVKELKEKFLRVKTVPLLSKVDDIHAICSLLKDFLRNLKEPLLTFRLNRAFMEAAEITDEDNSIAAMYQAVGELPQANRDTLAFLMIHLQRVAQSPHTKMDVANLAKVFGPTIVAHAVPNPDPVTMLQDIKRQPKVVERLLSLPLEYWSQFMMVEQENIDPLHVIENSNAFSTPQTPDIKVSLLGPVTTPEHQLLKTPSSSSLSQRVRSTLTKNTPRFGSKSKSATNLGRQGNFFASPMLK

[3] = target: Scavenger receptor class B member 1 (Mus musculus, UniProt Q61009); assay: blockers of DiI-HDL lipid transfer via SR-BI – cell-based, ldlA[mSR-BI] CHO, DiI fluorescence, dry powder, set 10, dose response (AID 624029); assay type: functional
[4] = system: HeLa; assay: viability loss in HeLa cells – cell-based, ATP luminescence, cherry-pick samples, cytotoxicity control, dose response (AID 687004); assay type: functional; details: Homo sapiens
[5] = THP-1 cell cytotoxicity, dose response, cytotoxicity control for non-replicating M. tuberculosis project (AID 489025); assay type: functional
[6] = cells; assay type: functional
[7] = target: Matrix metalloproteinase-14 (Homo sapiens, UniProt P50281); assay: Dose Response confirmation of uHTS hits for a small molecule inhibitors of MT1-MMP activation in a fluorescence assay set 1.; assay type: functional
[8] = target: Nonstructural protein 1 (Influenza A virus, UniProt Q194T2); assay type: functional, Influenza A virus (A/California/07/2009(H1N1))
[9] = COV434 cell viability loss – plate reader, dry powder, SA7, cytotoxicity control for PAX8 inhibitor project, dose response (AID 743145); assay type: functional, cell-based
[10] = inhibitors acting on PAX2 in cells – cell-based, plate reader, dry powder samples, selectivity assay for PAX8 inhibitor project, dose response (AID 743048); assay type: functional;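 also: HEK293 cells carrying a WT1 promoter luciferase reporter driven by expressed Pax2; potency is for inhibition of Pax2 driven reporter signal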
[11] = viability loss in HEK293 cells – cell-based, plate reader, cherry-picked samples, cytotoxicity control, dose response (AID 743446); assay type: functional
[12] = OVCAR4 cell viability loss – plate reader, dry powder, SA11, cytotoxicity control for PAX8 inhibitor project, dose response (AID 743150); assay type: functional, cell-based; details: OVCAR-4
[13] = target: Paired box protein Pax-8 (Homo sapiens, UniProt Q06710); assay: PAX8 transcriptional activity inhibition in RMG-I – RMG-I cells, luciferase, cherry-pick, dose response (AID 687027); assay type: functional, cell-based;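 also: luciferase reporter driven by Pax8 target thyroperoxidase promoter measured by SteadyGlo luminescence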
[14] = HEK-293T viability loss after treatment – luminescence, T-cell screen hits, cytotoxicity control for TCR NF-kB inhibitor project, dose response (AID 489026); assay type: functional, cell-based;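 also: cells exposed to compound about 14 hours before the viability readout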
[15] = OV-90 cell viability loss – plate reader, dry powder, SA8, PAX8 inhibitor project, dose response (AID 743149); assay type: functional, cell-based
[16] = general cell-killing toxicity readout – plate reader, dry powder samples, cytotoxicity control for PAX8 inhibitor project, dose response (AID 743021); assay type: functional, cell-based
[17] = PAX8-dependent cell viability loss – plate reader, dry powder, dose response (AID 743049); assay type: functional, cell-based
[18] = toxicity toward immortalized ovarian surface epithelium – cell-based, plate reader, dry powder samples, cytotoxicity control for PAX8 inhibitor project, dose response (AID 743045); assay type: functional
[19] = PAX5 cellular inhibition readout – cell-based, plate reader, dry powder samples, selectivity assay for PAX8 inhibitor project, dose response (AID 743047); assay type: functional;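 also: HEK293 cells carrying a Pax5 driven CD19 promoter luciferase reporter; potency of inhibitors that lower reporter luminescence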
[20] = blockers of bursicon-stimulated LGR2 cAMP reporter – cell-based, HEK293, CRE-luciferase reporter, cherry pick, set 2, dose response (AID 743343); assay type: functional;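 also: transfected cells were stimulated with diluted bursicon conditioned medium after compound addition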
[21] = A2780 cell killing – plate reader, dry powder samples, cytotoxicity control, dose response (AID 743046); assay type: functional, cell-based
[22] = toxicity toward HepG2 liver cells – cell-based, plate reader, cherry-pick, antagonist series, cytotoxicity control, dose response (AID 743416); assay type: functional
[23] = A549 cell cytotoxicity, dose response, cytotoxicity control, plate reader, cherry-pick, antagonist series (AID 743412); assay type: functional, cell-based
[24] = IGROV1 cell killing – plate reader, dry powder samples, PAX8 inhibitor project, dose response (AID 743043); assay type: functional, cell-based; details: IGROV-1
[25] = COV362 cell viability loss – plate reader, dry powder, SA12, cytotoxicity control for PAX8 inhibitor project, dose response (AID 743144); assay type: functional, cell-based
[26] = OVCAR-3 cell viability loss – plate reader, dry powder samples, PAX8 inhibitor project, dose response (AID 743044); assay type: functional, cell-based
[27] = blockade of melanocortin 4 receptor signaling – cell-based, plate reader, cherry pick, counter-screen for LGR2 antagonist project, dose response (AID 743444); assay type: functional;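 also: transfected HEK 293 cells stimulated with alpha-MSH peptide; potency of inhibitors of the alpha-MSH evoked signal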
[28] = target: T2, Sentrin-specific protease 1 (Homo sapiens, UniProt Q9P0U3); assay: Dose response confirmation of small molecule inhibitors of the catalytic domain of the SUMO protease, SENP1 in a FRET assay.; assay type: functional; details: read-out: IC50_Mean
[29] = target: T2, Sentrin-specific protease 1; assay: SENP1 catalytic domain blockers, concentration series – biochemical, kinetic FRET, dose response (AID 651697); assay type: functional; details: read-out: IC50_Mean
[30] = target: Metabotropic glutamate receptor 3 (Rattus norvegicus, UniProt P31422); assay: inhibitors of rat mGlu3 Galpha15 signaling – TREx293 cells, calcium flux, mGlu3 NAM project, dose response (AID 651840); assay type: functional
[31] = liver cell line viability loss – HepG2, luminescence plate reader, powder samples, set 2, cytotoxicity control, dose response (AID 651860); assay type: functional, cell-based
[32] = kidney cell line viability loss – HEK293T, luminescence plate reader, powder samples, set 4, cytotoxicity control, dose response (AID 651863); assay type: functional, cell-based; details: HEK293

T2 sequence (Q9P0U3 whole entry, the tested form may be a part): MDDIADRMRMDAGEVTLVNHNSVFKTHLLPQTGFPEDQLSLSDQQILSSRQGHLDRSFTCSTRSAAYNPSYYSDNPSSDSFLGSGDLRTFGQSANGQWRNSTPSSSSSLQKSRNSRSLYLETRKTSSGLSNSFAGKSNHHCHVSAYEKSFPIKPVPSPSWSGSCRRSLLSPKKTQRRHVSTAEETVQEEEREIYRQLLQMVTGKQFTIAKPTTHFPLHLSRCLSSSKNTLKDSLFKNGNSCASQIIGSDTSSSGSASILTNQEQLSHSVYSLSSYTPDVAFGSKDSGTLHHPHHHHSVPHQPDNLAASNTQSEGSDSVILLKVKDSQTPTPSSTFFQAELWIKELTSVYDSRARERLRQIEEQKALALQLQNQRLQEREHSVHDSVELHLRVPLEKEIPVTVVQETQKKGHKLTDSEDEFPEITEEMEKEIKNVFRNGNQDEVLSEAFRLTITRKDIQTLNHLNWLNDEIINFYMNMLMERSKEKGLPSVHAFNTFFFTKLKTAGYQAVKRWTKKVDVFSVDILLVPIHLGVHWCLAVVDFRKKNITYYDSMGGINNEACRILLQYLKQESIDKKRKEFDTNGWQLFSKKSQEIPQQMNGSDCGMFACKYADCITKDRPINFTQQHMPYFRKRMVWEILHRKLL
Chain of Scavenger receptor class B member 1 (Q61009 whole entry): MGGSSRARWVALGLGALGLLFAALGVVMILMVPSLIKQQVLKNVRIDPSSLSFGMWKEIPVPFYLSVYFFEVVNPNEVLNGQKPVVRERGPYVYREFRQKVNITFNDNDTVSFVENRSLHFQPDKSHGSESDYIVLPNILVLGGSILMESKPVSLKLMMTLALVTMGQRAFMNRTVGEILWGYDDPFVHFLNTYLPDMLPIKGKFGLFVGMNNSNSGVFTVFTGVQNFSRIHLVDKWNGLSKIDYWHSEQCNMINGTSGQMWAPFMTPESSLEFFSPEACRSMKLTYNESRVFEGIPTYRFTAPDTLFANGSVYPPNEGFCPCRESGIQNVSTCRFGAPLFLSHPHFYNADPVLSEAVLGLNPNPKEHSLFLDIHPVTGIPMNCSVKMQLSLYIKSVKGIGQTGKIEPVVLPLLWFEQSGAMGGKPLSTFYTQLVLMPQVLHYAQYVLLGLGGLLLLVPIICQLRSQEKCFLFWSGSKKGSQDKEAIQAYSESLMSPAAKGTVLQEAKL
Chain of Nonstructural protein 1 (Q194T2 whole entry): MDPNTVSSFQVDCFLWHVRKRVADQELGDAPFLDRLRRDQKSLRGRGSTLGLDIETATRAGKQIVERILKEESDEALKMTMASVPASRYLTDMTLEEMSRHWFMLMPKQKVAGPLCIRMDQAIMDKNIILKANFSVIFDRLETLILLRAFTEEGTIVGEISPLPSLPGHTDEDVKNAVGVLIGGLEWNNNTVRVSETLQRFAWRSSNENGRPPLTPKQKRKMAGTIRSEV
Chain of Metabotropic glutamate receptor 3 (P31422 whole entry): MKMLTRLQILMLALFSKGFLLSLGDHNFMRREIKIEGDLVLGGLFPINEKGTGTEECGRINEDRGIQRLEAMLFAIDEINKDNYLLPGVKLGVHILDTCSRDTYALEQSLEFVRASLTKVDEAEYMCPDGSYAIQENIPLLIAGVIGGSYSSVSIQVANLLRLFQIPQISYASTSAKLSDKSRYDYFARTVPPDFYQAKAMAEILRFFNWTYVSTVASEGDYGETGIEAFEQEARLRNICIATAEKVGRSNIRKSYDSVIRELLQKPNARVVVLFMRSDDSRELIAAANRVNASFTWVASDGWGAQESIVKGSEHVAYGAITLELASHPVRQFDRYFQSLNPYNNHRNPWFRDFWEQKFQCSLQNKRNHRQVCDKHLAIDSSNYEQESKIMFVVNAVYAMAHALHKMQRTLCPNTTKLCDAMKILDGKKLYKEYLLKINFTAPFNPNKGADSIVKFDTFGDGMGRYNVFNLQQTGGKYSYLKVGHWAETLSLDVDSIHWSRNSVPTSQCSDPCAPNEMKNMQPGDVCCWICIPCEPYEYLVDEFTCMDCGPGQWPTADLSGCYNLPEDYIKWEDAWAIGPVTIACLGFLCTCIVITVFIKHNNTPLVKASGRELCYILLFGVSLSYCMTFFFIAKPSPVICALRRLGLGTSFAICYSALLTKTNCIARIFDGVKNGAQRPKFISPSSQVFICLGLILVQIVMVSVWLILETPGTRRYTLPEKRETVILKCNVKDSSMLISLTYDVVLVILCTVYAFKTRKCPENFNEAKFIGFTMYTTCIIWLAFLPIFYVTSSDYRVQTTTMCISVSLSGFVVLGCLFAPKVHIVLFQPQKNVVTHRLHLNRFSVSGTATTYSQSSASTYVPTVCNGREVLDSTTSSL
Chain of Paired box protein Pax-8 (Q06710 whole entry): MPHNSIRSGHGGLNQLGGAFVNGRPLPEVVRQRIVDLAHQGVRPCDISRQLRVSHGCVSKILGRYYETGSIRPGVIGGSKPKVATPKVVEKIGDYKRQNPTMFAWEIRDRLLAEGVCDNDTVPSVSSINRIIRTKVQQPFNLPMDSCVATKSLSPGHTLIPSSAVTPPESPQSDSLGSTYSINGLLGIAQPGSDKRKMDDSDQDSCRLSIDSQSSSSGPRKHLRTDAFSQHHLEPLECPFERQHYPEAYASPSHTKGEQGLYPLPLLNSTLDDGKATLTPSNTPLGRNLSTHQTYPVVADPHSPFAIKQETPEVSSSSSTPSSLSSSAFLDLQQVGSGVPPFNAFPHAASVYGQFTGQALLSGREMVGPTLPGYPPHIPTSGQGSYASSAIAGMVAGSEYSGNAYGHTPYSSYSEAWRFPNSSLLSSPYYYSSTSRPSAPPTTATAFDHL

Structure (SMILES): CN(c1ccc(O)cc1)c1nc(-c2ccccc2)cs1
- CC50 [1]: 100 µM (active)
- IC50 [2]: 57.7 µM (active)

Structure (SMILES): CC(C)NC(=O)Nc1ccc2c(c1)C(=O)N([C@@H](C)CO)C[C@H](C)[C@H](CN(C)S(=O)(=O)c1ccc(Cl)cc1)O2
- AC50 [3]: > 70 µM (inactive)

Structure (SMILES): C[C@@H]1CN([C@@H](C)CO)C(=O)c2cc(NC(=O)Nc3cccc4ccccc34)ccc2O[C@@H]1CN(C)C(=O)Nc1ccccc1
- AC50 [4]: 252 nM (active)

Structure (SMILES): COc1ccc(Nc2ccccc2N)cc1
- CC50 [5]: 38.1 µM (active)
- IC50 [6]: 1.41 µM (active)
- IC50 [7]: 8.32 µM (active)
- IC50 [8]: 42.8 µM (active)

Structure (SMILES): Cc1cnc(NC(=O)c2ccc3c(c2)OCCO3)s1
- AC50 [9]: 29.4 µM (active)
- AC50 [10]: 13.4 µM (active)
- AC50 [11]: 31.4 µM (active)
- AC50 [12]: 26.8 µM (active)
- AC50 [13]: 3.49 µM (active)
- IC50 [14]: > 80 µM (inactive)
- AC50 [15]: 9.33 µM (active)
- AC50 [16]: 52.3 µM (active)
- AC50 [17]: 13.1 µM (active)
- AC50 [18]: 26 µM (active)
- AC50 [19]: 17.5 µM (active)
- AC50 [20]: 854 nM (active)
- AC50 [21]: 28.8 µM (active)
- AC50 [22]: 36 µM (active)
- AC50 [23]: 5.12 µM (active)
- AC50 [24]: 20.7 µM (active)
- AC50 [25]: 10.2 µM (active)
- AC50 [26]: 18.4 µM (active)
- AC50 [27]: 794 nM (active)

Structure (SMILES): COc1ccc2sc(/C=C/c3ccccc3O)[n+](C)c2c1
- IC50 [28]: 10.2 µM (active)
- IC50 [29]: 14.3 µM (active)

Structure (SMILES): COc1ccc(C#Cc2ccc(C(=O)N3CCCC4(C3)OCCO4)cc2)cc1
- IC50 [30]: 7.17 µM

Structure (SMILES): COc1ccc(CC/N=C2\C=C(NS(=O)(=O)c3c(C)cc(C)cc3C)c3ccccc3C2=O)cc1
- AC50 [31]: > 52 µM (inactive)
- AC50 [32]: > 52 µM (inactive)
